Assay results published in patent US10829523B2, “Anti-tumor peptides and use thereof” (TOAGOSEI CO., LTD., priority 2017, dated 2020).
Peptide text beside a SMILES is read from it.

Tests used:
Conditions in all cases: 5 h incubation, n=3 average
[1] = test system: mammary cancer cell line (MCF-7); assay: Anti-tumor activity test, cell survival rate (WST-8); format: cell-based, human
Protocol: (§1) For any one of each sample peptide synthesized in the above Test Example 1, an anti-tumor activity was evaluated by having various kinds of cultured tumor cells as a subject.
(§2) Specifically, as a tumor cell for test, cultured mammary cancer cell line (MCF-7), cultured mammary cancer cell line (MDA-MB-231), cultured pancreatic cancer cell line (MIA PaCa-2), cultured prostate cancer cell line (PC-3), and cultured prostate cancer cell line (DU-145), which are currently available on the market, were used. Furthermore, as a subject for comparison, commercially available cultured cell line of normal human mammary epithelial cells was used. Details of the test are described below.
(§3) Namely, those cell lines were cultured in advance in DMEM medium (that is, Dulbecco's MEM medium (DMEM medium: product of Gibco) containing 10% fetal bovine serum (FBS: product of Gibco), 2 mM L-glutamine, 50 unit/mL penicillin, and 50 μg/mL of streptomycin), and adjusted such that the number of cells per well of a 96-hole (well) plate is about 1×10^4. The medium amount was 100 μL per well.
(§4) Subsequently, the 96-hole (well) plate was kept in a CO2 incubator and pre-incubation was carried out for about 1 day (22 hours to 23 hours) at conditions of 37° C., 5% CO2.
(§5) After that, a test medium containing the peptide at each concentration was prepared such that the peptide concentration in any sample to be an evaluation subject is any one of 3.13 μM, 6.25 μM, 12.5 μM, 25 μM, 50 μM, and 100 μM. Then, the test medium was supplied, in an amount of 90 μL per well, to a well in which the cells as an evaluation subject have been cultured (that is, well after the above pre-incubation). In addition, the 96-hole (well) plate was returned to the CO2 incubator and incubated for 5 hours at conditions of 37° C., 5% CO2.
(§6) Furthermore, number (n) of the test wells for the test group added with each peptide at each peptide concentration was all set at 3. Thus, the result values shown in the following table correspond to an average value of the results which have been obtained from each of test well number of 3. Cell survival rate (%) was determined as described below.
(§7) Upon completion of the incubation for 5 hours described above, the medium in each well was replaced with 100 μL of fresh medium not containing the peptide. Furthermore, “Cell Counting Kit-8” (product of Dojindo Laboratories) containing as a chromogenic reagent “Aqueous tetrazolium salt (WST-8)”, which is a reagent for measuring cell proliferation, was added in an amount of 10 μL to each well. After that, the 96-hole (well) plate was returned to the CO2 incubator and incubated for 1.5 hours at conditions of 37° C. 5% CO2.
(§8) Upon completion of the incubation, the cell culture solution added with the above reagent was recovered, and simultaneously, according to colorimetry by which absorbance at wavelength of 450 nm based on reduction of tetrazolium salt (value calibrated with absorbance at wavelength of 650 nm: A450-A650), the cell survival rate (%) was evaluated.

[2] = test system: prostate cancer cell line (DU-145); assay: as above; format: cell-based, human
Protocol: as §1, §2, §3, §4, §5, §6, §7, §8

[3] = test system: prostate cancer cell line (PC-3); assay: as above; format: cell-based, human
Protocol: as §1, §2, §3, §4, §5, §6, §7, §8

[4] = test system: mammary cancer cell line (MDA-MB-231); assay: as above; format: cell-based, human
Protocol: as §1, §2, §3, §4, §5, §6, §7, §8

[5] = test system: pancreatic cancer cell line (MIA PaCa-2); assay: as above; format: cell-based, human
Protocol: as §1, §2, §3, §4, §5, §6, §7, §8

[6] = test system: normal human mammary epithelial cells; assay: Cell survival rate test (WST-8, Cell Counting Kit-8) on normal cells for comparison; format: cell-based
Protocol: as §1, §2, §3, §4, §5, §6, §7, §8

For `CC[C@H](C)[C@H](NC(=O)CNC(=O)[C@H](CC(C)C)NC(=O)[C@H](CC(C)C)NC(=O)[C@H](Cc1ccccc1)NC(=O)[C@@H](NC(=O)CNC(=O)[C@@H](NC(=O)CNC(=O)[C@H](CCCCN)NC(=O)[C@@H](N)CCSC)[C@@H](C)O)[C@@H](C)O)C(=O)N[C@@H](C)C(=O)NCC(=O)N[C@@H](CC(C)C)C(=O)N[C@@H](Cc1ccccc1)C(=O)N[C@H](C(=O)N[C@@H](CC(C)C)C(=O)N[C@@H](CCC(N)=O)C(=O)N[C@@H](CCCCN)C(=O)N[C@H](C(=O)N[C@H](C(=O)N[C@@H](CCC(N)=O)C(=O)N[C@@H](CCCNC(=N)N)C(=O)N[C@@H](CCCNC(=N)N)C(=O)N[C@@H](CCCNC(=N)N)C(=O)N[C@@H](CCCNC(=N)N)C(=O)N[C@@H](CCCNC(=N)N)C(=O)N[C@@H](CCCNC(=N)N)C(=O)N[C@@H](CCCNC(=N)N)C(=O)N[C@@H](CCCNC(=N)N)C(=O)N[C@@H](CCCNC(=N)N)C(N)=O)[C@@H](C)CC)C(C)C)[C@@H](C)O` [Sample 2] (H-MKGTGTFLLGIAGLFTLQKVIQRRRRRRRRR-NH2; N-terminus assumed), the “Cell survival rate (%)” value ([1]; peptide 12.5 μM) was 75.7%, the “Cell survival rate (%)” value ([1]; peptide 25 μM) was 49.1% and the “Cell survival rate (%)” value ([1]; peptide 50 μM) was 20.2%. For the same molecule, the “Cell survival rate (%)” value ([1]; peptide 100 μM) was 17.6%, the “Cell survival rate (%)” value ([2]; peptide 12.5 μM) was 86.2% and the “Cell survival rate (%)” value ([2]; peptide 25 μM) was 75.2%. For the same molecule, the “Cell survival rate (%)” value ([2]; peptide 50 μM) was 41.2%, the “Cell survival rate (%)” value ([2]; peptide 100 μM) was 16.4% and the “Cell survival rate (%)” value ([3]; peptide 12.5 μM) was 101.1%. The “Cell survival rate (%)” value ([3]; peptide 25 μM) was 80.9%, the “Cell survival rate (%)” value ([3]; peptide 50 μM) was 45.2% and the “Cell survival rate (%)” value ([3]; peptide 100 μM) was 42.6%. The “Cell survival rate (%)” value ([4]; peptide 12.5 μM) was 80%, the “Cell survival rate (%)” value ([4]; peptide 25 μM) was 69.7% and the “Cell survival rate (%)” value ([4]; peptide 50 μM) was 52.6%. The “Cell survival rate (%)” value ([4]; peptide 100 μM) was 44.3%, the “Cell survival rate (%)” value ([5]; peptide 12.5 μM) was 94.4% and the “Cell survival rate (%)” value ([5]; peptide 25 μM) was 91.3%. The “Cell survival rate (%)” value ([5]; peptide 50 μM) was 36.7%, the “Cell survival rate (%)” value ([5]; peptide 100 μM) was 7% and the “Cell survival rate (%)” value ([6]; peptide 12.5 μM) was 88.3%. The “Cell survival rate (%)” value ([6]; peptide 25 μM) was 82.1%, the “Cell survival rate (%)” value ([6]; peptide 50 μM) was 56.1% and the “Cell survival rate (%)” value ([6]; peptide 100 μM) was 42.7%.

`CC[C@H](C)[C@H](NC(=O)[C@H](CO)NC(=O)[C@@H](NC(=O)[C@H](CC(C)C)NC(=O)[C@H](CC(C)C)NC(=O)[C@H](CC(N)=O)NC(=O)[C@H](Cc1c[nH]c2ccccc12)NC(=O)[C@H](CCC(N)=O)NC(=O)[C@H](CC(C)C)NC(=O)[C@@H]1CCCN1C(=O)[C@@H](N)Cc1ccc(O)cc1)[C@@H](C)CC)C(=O)N[C@@H](CC(C)C)C(=O)N[C@@H](C)C(=O)N[C@@H](CO)C(=O)N[C@@H](CO)C(=O)N[C@H](C(=O)NCC(=O)N[C@@H](CO)C(=O)N[C@@H](Cc1ccc(O)cc1)C(=O)N[C@@H](C)C(=O)N[C@H](C(=O)N[C@@H](CCCCN)C(=O)N[C@@H](CCCCN)C(=O)N[C@@H](CCCNC(=N)N)C(=O)N[C@H](C(=O)N[C@@H](CC(C)C)C(=O)N[C@@H](CCCNC(=N)N)C(=O)N[C@@H](CCCCN)C(=O)N[C@@H](CC(N)=O)C(=O)N[C@@H](CC(=O)O)C(=O)N[C@@H](CCCNC(=N)N)C(=O)N[C@@H](CCCCN)C(=O)N[C@@H](CCCCN)C(=O)N[C@@H](CCCNC(=N)N)C(N)=O)[C@@H](C)O)C(C)C)C(C)C` [Sample 3] (H-YPLQWNLLISILASSVGSYAVKKRTLRKNDRKKR-NH2; N-terminus assumed) was tested, and the “Cell survival rate (%)” value ([1]; peptide 12.5 μM) was 79.3%, the “Cell survival rate (%)” value ([1]; peptide 25 μM) was 71.8% and the “Cell survival rate (%)” value ([1]; peptide 50 μM) was 50%. The “Cell survival rate (%)” value ([1]; peptide 100 μM) was 32.8%, the “Cell survival rate (%)” value ([2]; peptide 12.5 μM) was 78.6% and the “Cell survival rate (%)” value ([2]; peptide 25 μM) was 73.7%. For the same molecule, the “Cell survival rate (%)” value ([2]; peptide 50 μM) was 49.3%, the “Cell survival rate (%)” value ([2]; peptide 100 μM) was 37.5% and the “Cell survival rate (%)” value ([3]; peptide 12.5 μM) was 64.6%. The “Cell survival rate (%)” value ([3]; peptide 25 μM) was 66.5%, the “Cell survival rate (%)” value ([3]; peptide 50 μM) was 62.5% and the “Cell survival rate (%)” value ([3]; peptide 100 μM) was 47%. For the same molecule, the “Cell survival rate (%)” value ([4]; peptide 12.5 μM) was 77.9%, the “Cell survival rate (%)” value ([4]; peptide 25 μM) was 65.7% and the “Cell survival rate (%)” value ([4]; peptide 50 μM) was 54.5%. For the same molecule, the “Cell survival rate (%)” value ([4]; peptide 100 μM) was 45%, the “Cell survival rate (%)” value ([5]; peptide 12.5 μM) was 101.4% and the “Cell survival rate (%)” value ([5]; peptide 25 μM) was 93.8%. For the same molecule, the “Cell survival rate (%)” value ([5]; peptide 50 μM) was 88.5%, the “Cell survival rate (%)” value ([5]; peptide 100 μM) was 45.6% and the “Cell survival rate (%)” value ([6]; peptide 12.5 μM) was 83.6%. For the same molecule, the “Cell survival rate (%)” value ([6]; peptide 25 μM) was 71.6%, the “Cell survival rate (%)” value ([6]; peptide 50 μM) was 81.5% and the “Cell survival rate (%)” value ([6]; peptide 100 μM) was 74.8%.

With `CC[C@H](C)[C@H](NC(=O)CNC(=O)[C@@H](NC(=O)[C@@H](NC(=O)CNC(=O)[C@H](CC(C)C)NC(=O)[C@@H](NC(=O)[C@H](Cc1ccccc1)NC(=O)[C@H](CO)NC(=O)[C@H](C)NC(=O)[C@@H](NC(=O)CNC(=O)[C@H](CCCCN)NC(=O)[C@H](CCSC)NC(=O)[C@H](Cc1ccccc1)NC(=O)[C@H](C)NC(=O)[C@@H](N)Cc1ccc(O)cc1)[C@@H](C)O)[C@@H](C)CC)[C@@H](C)O)C(C)C)C(=O)N[C@@H](Cc1ccccc1)C(=O)N[C@@H](Cc1ccccc1)C(=O)NCC(=O)N[C@@H](Cc1c[nH]c2ccccc12)C(=O)N[C@@H](CCCNC(=N)N)C(=O)N[C@@H](CCCNC(=N)N)C(=O)N[C@@H](CCC(N)=O)C(=O)N[C@@H](C)C(=O)N[C@@H](CCCNC(=N)N)C(=O)N[C@@H](Cc1ccccc1)C(=O)N[C@@H](CCCCN)C(N)=O` [Sample 8] (H-YAFMKGTASFILGTVGIFFGWRRQARFK-NH2; N-terminus assumed) the “Cell survival rate (%)” value ([4]; peptide 3.13 μM) was 99% and the “Cell survival rate (%)” value ([4]; peptide 50 μM) was 76%.

For `CC[C@H](C)[C@H](NC(=O)[C@H](CO)NC(=O)[C@@H](NC(=O)[C@H](Cc1ccccc1)NC(=O)[C@H](CC(C)C)NC(=O)[C@H](CC(N)=O)NC(=O)[C@H](Cc1c[nH]c2ccccc12)NC(=O)[C@H](CCC(N)=O)NC(=O)[C@@H](N)CC(C)C)C(C)C)C(=O)N[C@H](C(=O)N[C@@H](CO)C(=O)N[C@@H](CO)C(=O)N[C@@H](CO)C(=O)N[C@H](C(=O)N[C@@H](Cc1ccccc1)C(=O)N[C@@H](CO)C(=O)N[C@@H](Cc1ccc(O)cc1)C(=O)N[C@@H](CO)C(=O)N[C@H](C(=O)N[C@@H](Cc1c[nH]c2ccccc12)C(=O)N[C@@H](CCCNC(=N)N)C(=O)N[C@@H](CCCNC(=N)N)C(=O)N[C@@H](CCC(N)=O)C(=O)N[C@@H](C)C(=O)N[C@@H](CCCNC(=N)N)C(=O)N[C@@H](Cc1ccccc1)C(=O)N[C@@H](CCCCN)C(N)=O)C(C)C)C(C)C)C(C)C` [Sample 9] (H-LQWNLFVSIVSSSVFSYSVWRRQARFK-NH2; N-terminus assumed), the “Cell survival rate (%)” value ([4]; peptide 3.13 μM) was 99% and the “Cell survival rate (%)” value ([4]; peptide 50 μM) was 73%.

With `CC[C@H](C)[C@H](NC(=O)[C@H](C)NC(=O)[C@H](CO)NC(=O)[C@@H](NC(=O)[C@H](CC(C)C)NC(=O)[C@H](Cc1ccccc1)NC(=O)[C@H](CO)NC(=O)[C@H](Cc1c[nH]c2ccccc12)NC(=O)[C@H](CCC(N)=O)NC(=O)[C@@H](NC(=O)[C@@H]1CCCN1)C(C)C)C(C)C)C(=O)N[C@@H](C)C(=O)NCC(=O)N[C@@H](CO)C(=O)N[C@H](C(=O)N[C@@H](C)C(=O)N[C@@H](CO)C(=O)N[C@@H](Cc1ccc(O)cc1)C(=O)N[C@@H](CCCNC(=N)N)C(=O)N[C@H](C(=O)N[C@@H](Cc1c[nH]c2ccccc12)C(=O)N[C@@H](CCCNC(=N)N)C(=O)N[C@@H](CCCNC(=N)N)C(=O)N[C@@H](CCC(N)=O)C(=O)N[C@@H](C)C(=O)N[C@@H](CCCNC(=N)N)C(=O)N[C@@H](Cc1ccccc1)C(=O)N[C@@H](CCCCN)C(N)=O)C(C)C)C(C)C` [Sample 11] (H-PVQWSFLVSAIAGSVASYRVWRRQARFK-NH2; N-terminus assumed) the “Cell survival rate (%)” value ([4]; peptide 3.13 μM) was 101% and the “Cell survival rate (%)” value ([4]; peptide 50 μM) was 77%.
